Laboratory results published in the supplement of paper PMC4862054.
Values joined by “and” are separate entries in the source; they are usually repeats but may differ in a detail not shown here. Identical values can stand only once.

Key:
Conditions in all cases: incubation time: 72 h
Hs578T = assay: drug sensitivity score (DSS), CellTiter-Glo (DSS (AUC-based score)); higher = stronger drug effect (viability inhibition or cytotoxicity); extreme values may be limits of the assay
In short: (§1)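 In 384-well plates, compound was laid out at 5 concentrations in 10-fold steps over a 10,000-fold range specific to each compound, and breast cancer cell lines were seeded on top in 20 µl suspension for a 72 h incubation. CellTox Green fluorescence and then CellTiter-Glo luminescence were read, and each plate was normalised to 0.1 % DMSO and a positive kill control. The drug sensitivity score was calculated from the area under the fitted dose-response curve.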

MDA-MB-453 = assay: as above
In short: as §1

DU-4475 [1] = assay: as above
In short: as §1

SK-BR-3 = assay: as above
In short: as §1

MDA-MB-231 = assay: as above
In short: as §1

BT-549 = assay: as above
In short: as §1

MDA-MB-436 = assay: as above
In short: as §1

MDA-MB-468 = assay: as above
In short: as §1

CAL-51 [2] = assay: as above
In short: as §1

MFM-223 = assay: as above
In short: as §1

CAL-120 = assay: as above
In short: as §1

HCC1599 = assay: as above
In short: as §1

CAL-148 [3] = assay: as above
In short: as §1

HCC1937 = assay: as above
In short: as §1

CAL-85-1 [4] = assay: as above
In short: as §1

BT-474 = assay: as above
In short: as §1

MCF-10A = assay: as above
In short: as §1

HDQ-P1 [5] = assay: as above
In short: as §1

HCC1143 = assay: as above
In short: as §1

DU-4475 [6] = assay: normalised viability (% of control), CellTiter-Blue; higher = more viable cells (about 100 = DMSO control)
Procedure: (§2)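 DSRT, CellTiter-Blue viability, 72 h incubation. Signal is normalised to DMSO and benzethonium chloride controls. Value is the normalised response at dose 7.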

CAL-51 [7] = assay: as above
Procedure: as §2

CAL-148 [8] = assay: as above
Procedure: as §2

CAL-85-1 [9] = assay: as above
Procedure: as §2

HDQ-P1 [10] = assay: as above
Procedure: as §2

CAL-148 [11] = assay: normalised viability (% of control), CellTiter-Blue; higher = more viable cells (about 100 = DMSO control); remark: listed apart in the source
In short: (§3)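 The reported figure is normalised viability at a single listed concentration of the series. Breast cancer cell lines (20 µl suspension) went onto 384-well plates holding compound in 5 µl medium for 72 h. CellTiter-Blue (2.5 µl, 2 h, 37 °C) was read by fluorescence at 560/590 nm, and each plate was scaled to vehicle at 100 and a positive kill control at 0.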

HDQ-P1 [12] = assay: as above; remark: listed apart in the source
In short: as §3

SMILES | drug sensitivity score (Hs578T) | drug sensitivity score (MDA-MB-453) | drug sensitivity score (DU-4475 [1]) | drug sensitivity score (SK-BR-3) | drug sensitivity score (MDA-MB-231) | drug sensitivity score (BT-549) | drug sensitivity score (MDA-MB-436) | drug sensitivity score (MDA-MB-468) | drug sensitivity score (CAL-51 [2]) | drug sensitivity score (MFM-223) | drug sensitivity score (CAL-120) | drug sensitivity score (HCC1599) | drug sensitivity score (CAL-148 [3]) | drug sensitivity score (HCC1937) | drug sensitivity score (CAL-85-1 [4]) | drug sensitivity score (BT-474) | drug sensitivity score (MCF-10A) | drug sensitivity score (HDQ-P1 [5]) | drug sensitivity score (HCC1143) | normalised viability (DU-4475 [6]; 100 nM) [%] | normalised viability (CAL-51 [7]; 100 nM) [%] | normalised viability (CAL-148 [8]; 100 nM) [%] | normalised viability (CAL-85-1 [9]; 100 nM) [%] | normalised viability (HDQ-P1 [10]; 100 nM) [%] | normalised viability (CAL-148 [11]; 0.3 nM) [%] | normalised viability (CAL-148 [11]; 3 nM) | normalised viability (CAL-148 [11]; 10 nM) [%] | normalised viability (HDQ-P1 [12]; 0.3 nM) [%] | normalised viability (HDQ-P1 [12]; 3 nM) [%] | normalised viability (HDQ-P1 [12]; 10 nM) [%] | normalised viability (DU-4475 [6]; 1000 nM) | normalised viability (CAL-51 [7]; 1000 nM) | normalised viability (CAL-148 [8]; 1000 nM) | normalised viability (CAL-85-1 [9]; 1000 nM) | normalised viability (HDQ-P1 [10]; 1000 nM) | normalised viability (CAL-148 [11]; 30 nM) | normalised viability (CAL-148 [11]; 100 nM) | normalised viability (HDQ-P1 [12]; 30 nM) | normalised viability (HDQ-P1 [12]; 100 nM)
CC[C@@H]1C(=O)N(C)c2cnc(Nc3ccc(C(=O)NC4CCN(C)CC4)cc3OC)nc2N1C1CCCC1 [BI 2536] | 13.3 | 11.5 | 7.02 | 25.7 | 13.3 | 21.3 | 14 | 19.5 | 17.7 | 16.7 | 11.2 | 12.4 | 5.51 | 0 | 14.1 | 8.94 | 9.18 | 4.76 | 15.7 | 22.3 | 12.1 | 28.3 | 59.4 | 57.7 | 96.9 | 92.9% | 26.2 | 126 | 77 | 74.2 |  |  |  |  |  |  |  |  | 
C=CC(=O)Nc1cc2c(Nc3ccc(F)c(Cl)c3)ncnc2cc1OCCCN1CCOCC1 [Canertinib] | 2.99 | 6.35 | 0.331 | 20.8 | 8.75 | 7.57 | 4.2 | 10.6 | 14.1 | 3.18 | 3.29 | 3.8 | 5.7 | 5.34 | 13.6 | 6.57 | 22 | 11.8 | 3.9 |  |  |  |  |  |  | 81.8% |  |  | 106 |  | 114% | 101% | 68.6% | 49.5% | 55.4% | 88.8% | 75.6% | 90.6% | 76%
O=C(O)C1(C(=O)O)CCC1.[NH2-].[NH2-].[Pt+2] [Carboplatin] | 0 | 0 | 0 | 0 | 0 | 0 | 0 | 0 | 0 | 0 | 0 | 0 | 0 | 0 | 0 | 0 | 0 | 0 | 0 |  |  |  |  |  |  | 90% |  |  | 108 |  | 97.3% | 99.9% | 103% | 81.5% | 97.1% | 96% | 95.4% | 107% | 103%
COc1cc2c(Oc3ccc4[nH]c(C)cc4c3F)ncnc2cc1OCCCN1CCCC1 [Cediranib] | 0 | 0 | 0 | 0 | 0 | 0 | 0 | 0 | 0 | 1.86 | 0 | 0 | 0 | 0 | 0 | 0 | 0 | 0 | 0 | 81.3 | 81.6 | 108 | 95.6 | 95.9 | 103 | 92.8% | 107 | 84.8 | 90.6 | 100 |  |  |  |  |  |  |  |  | 
Cc1ccc(-c2cc(C(F)(F)F)nn2-c2ccc(S(N)(=O)=O)cc2)cc1 [Celecoxib] | 0 | 0 | 0 | 0 | 0 | 0 | 0 | 0 | 0 | 0 | 0 | 0 | 0 | 0 | 0 | 0 | 0 | 0 | 0 |  |  |  |  |  |  | 86.8% |  |  | 104 |  | 110% | 93.5% | 75.5% | 69.9% | 83.2% | 97% | 91.2% | 93.5% | 85%
Nc1ncn([C@H]2C[C@H](O)[C@@H](CO)O2)c(=O)n1 [Decitabine] | 0.0828 | 0 | 0 | 0 | 0 | 3.92 | 0 | 19 | 3.54 | 0 | 0.811 | 0 | 0 | 1.42 | 0 | 0.527 | 0 | 0.141 | 0 |  |  |  |  |  |  | 92.8% and 76.2% |  |  |  |  | 76.6% and 89.9% | 107% and 98.7% | 75.2% and 75% | 78.2% and 89.6% | 87.1% and 88.9% | 91.4% and 85.8% | 86.2% and 96.3% | 93% and 96.6% | 96.1% and 92%
